Measurements: patent US20240002370A1, “PYRROLE-TYPE COMPOUNDS AND USES THEREOF FOR TREATING VIRAL INFECTIONS” (ENYO PHARMA, priority 2020, published 2024)

System: H1N1 (influenza A/New Caledonia/20/99)
Test: microbe, parasite or virus in culture
Type: cell-based
Details: H1N1, A549, 48 h

`COC1=CC(c2cc3c([nH]2)CCCC3)=N/C1=C\c1[nH]c(C)cc1C` [Compound 3, (Z)-2-(2-((3,5-dimethyl-1H-pyrrol-2-yl)methylene)-3-methoxy-2H-pyrrol-5-yl)-4,5,6,7-tetrahydro-1H-indole] was tested. Which IC50 did it give?
The IC50 was 56 nM.

`COC1=CC(c2cc3c([nH]2)CCCC3C)=N/C1=C\c1[nH]c(C)cc1C` (centres unmarked) [Compound 7, (Z)-2-(2-((3,5-dimethyl-1H-pyrrol-2-yl)methylene)-3-methoxy-2H-pyrrol-5-yl)-4-methyl-4,5,6,7-tetrahydro-1H-indole] was tested. Which IC50 did it give?
Its IC50 is 75 nM.

Which IC50 does the source give for `COC1=CC(c2cc3c([nH]2)CCC(C)C3)=N/C1=C\c1[nH]c(C)cc1C` (centres unmarked) [Compound 19, (Z)-2-(2-((3,5-dimethyl-1H-pyrrol-2-yl)methylene)-3-methoxy-2H-pyrrol-5-yl)-5-methyl-4,5,6,7-tetrahydro-1H-indole] here?
The IC50 was 91 nM.

For `COC1=CC(c2cc3c([nH]2)CCCC32CC2)=N/C1=C\c1[nH]c(C)cc1C` [Compound 23, (Z)-2′-(2-((3,5-dimethyl-1H-pyrrol-2-yl)methylene)-3-methoxy-2H-pyrrol-5-yl)-1′,5′,6′,7′-tetrahydrospiro[cyclopropane-1,4′-indole]], which IC50 is on record?
The IC50 was 77 nM.

How did the IC50 turn out when `COC1=CC(c2cc3ccccc3[nH]2)=N/C1=C\c1[nH]c(C)cc1C` [Obatoclax, reference compound] was run?
Its IC50 is 91 nM.
